The values below come from patent US8735444B2, “Fluorinated rhodamines as photostable fluorescent dyes for labelling and imaging techniques” (Max-Planck-Gesellschaft zur Foerderung der Wissenschaften …, priority 2009, dated 2014).

SMILES strings stand for the structures. Marks after values point to notes of the source that are not given here.

Data set [1] has as its system living mammalian cells (PtK2). As to the kind of experiment: Membrane-permeation experiments in living cells, epifluorescence microscope. It is filed as cell-based. The following applies: 15 minutes. The protocol: FIG. 9. Membrane-permeation experiments of the presented dyes. Living mammalian cells (PtK2) were incubated for 15 minutes with a 50 μg dye/ml solution. The subcellular localization of the dye was imaged in an epifluorescence microscope. A: 46-H—CH2 CF3—H—H (16); B: 42-COOH (15); C: 23; D: 37-Me-Me-H (27); E: 42-H (14)-methylester; F: 33-H—H (18).
The most important prerequisite for fluorophores used in these labeling strategies is that sufficient amounts of it need to pass cellular membrane(s) to reach the target protein. In order to asses the permeability of the cell membrane to the fluorescent dyes described in the presented invention, living mammalian cells (PtK2) previously grown overnight on cover slips, were first subjected to either 500 μg dye/ml or 50 μg dye/ml in growth medium for 15 minutes. (The amount of dye used for labeling of SNAP-fusion proteins is below 5 μg dye/ml.) Then, the cells were washed with growth medium (without dye) for 15 minutes, and imaged using an epifluorescence microscope.

Data set [2] in a line: Spectral properties of the fluorinated rhodamines (absorption, emission, quantum yield, lifetime). The class given is physicochemical.
Source text: Extinction coefficients (of the long wavelength maximum) which are lower than ca. 8×10^4 M^−1 cm^−1 indicate the presence of the closed non-fluorescent form.
Data set [3] can be described thus: Ground state depletion (GSDIM) pump-probe measurements in PVA matrix. It is filed as physicochemical. The source says:
In this method, “off” and “on” switching of the fluorescence is achieved by transiently shelving the fluorophores into a meta-stable dark state. Upon the return of only a few isolated single molecules to the fluorescent singlet state, positions of these single light emitting spots can be imaged on a camera and localized with high precision. Upon repeating this procedure and acquiring many pictures, a super-resolution image can be reconstructed from the localized positions. A prerequisite of this method is that >70% of the ensemble of the applied fluorescent dyes can be shelved into a dark state at a time (to ensure the detection of isolated fluorescent spots at a time in a densely labeled sample) and that the fluorophores are bright enough, i.e., that they emit enough photons while being in the singlet on-state (to ensure high precision of localization).
Switching off of the laser leads to a recovery of the fluorescence ensemble within a characteristic recovery time of 150-450 ms (Table 5), indicating the shelving into a metastable dark state. The measurements were performed in a pump-probe mode, i.e., the residual level of fluorescence was probed with I<100 W/cm^2 for 0.5 ms after strong irradiation for 10 ms with the given laser intensity in Table 5.
Furthermore, recovery of the fluorescence can be accelerated by addition of UV light, which leads to an optically-induced depopulation of the dark states. Already 2-3 kW/cm^2 of 375 nm light recovers the fluorescence within an irradiation period of 0.5 ms. […] The accelerated recovery is important for samples with low density of labels, where the addition of UV light and thus acceleration of the return from a dark state helps to accelerate image acquisition. Photostabilities of the studied fluorescent dyes under the GSDIM conditions are different: 15-50 pump-probe cycles with a pump intensity of 14-110 kW/cm^2 bleach 30-95% of the whole ensemble.

Data set [4] is described as follows: Fluorescence correlation spectroscopy (FCS) in aqueous solutions. The class given is physicochemical. Particulars: aqueous solution, intensity range 0.1-2.0 MW/cm^2. The text has this:
FIG. 10. FCS curves obtained from Rh110-CO2 (left plot) and compound 17 (right plot), at low (0.1 MW/cm^2) and high (2 MW/cm^2) excitation intensity (dots: experimental data; lines: best fits).
In combination with modern highly sensitive detection technologies recently developed, the observation of a single or a few molecules has become readily available. Several techniques based on these measurements [such as the fluorescence fluctuation spectroscopy and fluorescence correlation spectroscopy (FCS)] advantageously reveal molecular properties otherwise hidden by averaging the ensemble. A common requirement for experiments involving a few or single molecules is the use of fluorescent dyes with high photostability especially at high excitation intensities of >100 kW/cm^2. For biological applications the use of water as a solvent is almost imperative. Low solubility in water is often associated with a high bleaching ratio, or lower fluorescence quantum yield in aqueous medium compared with that in organic solvents. […]
The excitation intensity of 115 kW/cm^2 (a value normally used in routinely FCS measurements) and at an excitation intensity of about an order of magnitude higher (2 MW/cm^2) have been used. […] An increase in the fraction of molecules in the triplet state can also be detected. […]

Data set [5] is described as follows: Photoresistance in aqueous solutions irradiated with 488 nm light (3 W/cm^2). The class given is physicochemical. Particulars: colored water solutions, several hours, 488 nm line of an Argon laser. The text has this: The compounds also display an outstanding photostability when irradiated for a prolonged time. […] The initial absorption at the irradiation wavelength was the same for all solutions. […] After two hours of irradiation, compounds 14 and 15 retain more than 50% of the initial emission intensity and compound 14a has about 90% of the initial signal left.
FIG. 2. Photoresistance of selected compounds (14-17, 14a, and 16a in Table 2), and some commercially available fluorophores with the similar spectral properties (Alexa Fluor 488®, Rhodamine Green®, Oregon Green 488®, and Fluorescein) in aqueous solutions irradiated with 488 nm light (3 W/cm^2)

`O=C(O)c1ccc2c(c1)C(=O)OC21c2ccc(NCC(F)(F)F)c(S(=O)(=O)O)c2Oc2c1ccc(NCC(F)(F)F)c2S(=O)(=O)O` [Compound 17, 5′-Carboxy-4,5-disulfo-N,N′-bis(2,2,2-trifluoroethyl)-rhodamine]: in data set [1] (50 μg dye/ml), the “Structures stained in living cells” value is listed as “Dim cytoplasmatic stain with dots”. Further, the “Structures stained in living cells” value in data set [1] (500 μg dye/ml) is given as “Bright background staining visible”. Also, in data set [2] (aqueous buffer at pH 7), the “ABSORPTION λMAX” value came to 501 nm; the “EMISSION λMAX” value is reported as 524^a, 524^b nm; the ΦFL stood at 0.96; the τFL was 3.9 ns. Besides, in data set [2] (methanol), the ABSORPTION ε turned out to be 86000 M⁻¹ cm⁻¹; the “ABSORPTION λMAX” value is 511 nm; the “EMISSION λMAX” value is given as 524^a, 524^b nm. In data set [3] (PVA matrix table), this compound came in with a λem of 524 nm and a λex of 501 nm. Moreover, the “Γfl, remaining fluorescence after 5 measurement cycles” value in data set [3] (PVA matrix, at one spot with the given power density) is reported as 40%. Further, in data set [3] (PVA matrix, pump-pulse power density per dye 14-110 kW/cm^2), the “Rfl, t=0, residual fluorescence after the pump-pulse” value stood at 25%. Also, the “change of diffusion time with excitation intensity (bleaching)” value in data set [4] is reported as “no significant change in the diffusion time”. The “change in emission on irradiation” value in data set [5] was “without any significant changes in their emission”.
